Reference: patent US9834558B2, “Substituted bridged urea analogs as sirtuin modulators” (GLAXOSMITHKLINE LLC, priority 2013, dated 2017)

What follows are compounds tested against T1, SIRT1 (Homo sapiens, UniProt Q96EB6) (assay: Trp mass spectrometry assay of SIRT1 activation). Details: Trp mass spectrometry assay; EC1.5 = concentration of test compound that results in 150% activation of SIRT1.
T1 sequence (Q96EB6 1-747): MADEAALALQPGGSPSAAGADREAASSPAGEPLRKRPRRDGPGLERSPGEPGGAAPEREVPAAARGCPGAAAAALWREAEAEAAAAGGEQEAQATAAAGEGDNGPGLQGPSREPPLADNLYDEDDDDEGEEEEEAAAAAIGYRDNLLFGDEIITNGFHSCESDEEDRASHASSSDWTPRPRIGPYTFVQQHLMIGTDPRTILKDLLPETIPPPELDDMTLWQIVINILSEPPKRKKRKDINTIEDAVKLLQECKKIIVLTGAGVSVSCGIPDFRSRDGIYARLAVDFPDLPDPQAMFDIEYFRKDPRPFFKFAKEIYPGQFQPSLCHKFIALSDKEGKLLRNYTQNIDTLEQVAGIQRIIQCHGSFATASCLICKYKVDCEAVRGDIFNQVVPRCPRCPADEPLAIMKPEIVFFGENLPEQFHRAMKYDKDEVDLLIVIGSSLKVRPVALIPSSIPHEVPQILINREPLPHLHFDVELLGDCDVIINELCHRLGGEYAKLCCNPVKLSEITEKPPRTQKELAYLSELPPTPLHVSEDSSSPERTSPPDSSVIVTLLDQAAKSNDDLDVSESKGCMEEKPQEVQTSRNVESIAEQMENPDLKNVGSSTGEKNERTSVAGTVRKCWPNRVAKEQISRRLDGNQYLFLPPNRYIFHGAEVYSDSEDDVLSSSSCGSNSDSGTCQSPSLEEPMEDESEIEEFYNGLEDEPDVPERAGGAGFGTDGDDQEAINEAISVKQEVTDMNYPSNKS
Format: biochemical
In short: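 N-terminal His-tagged human SIRT1 (10 nM, E. coli BL21(DE3)) with 0.5 μM Ac-RHKK(Ac)W-NH2 peptide and 120 μM βNAD+, 25 min at 25 °C in HEPES pH 7.5, formic acid stop. OAADPR or deacetylated peptide quantified by mass spectrometry; EC1.5 (50% activity increase over control) and Percent Maximum Activation reported.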

| SMILES | Tryp AVG EC1.5 (μM) |
| --- | --- |
| O=C(O)c1cc(NC(=S)NCc2ccc(NC(=O)N3c4nc(-c5cccc(C(F)(F)F)c5)ccc4N4CCC[C@H]3C4)cc2)ccc1-c1c2ccc(=O)cc-2oc2cc(O)ccc12 [Example 563] | A (A (EC1.5<1 μM)) |
| O=C(NCCN1CCOCC1)N1c2nc(-c3cccc(C(F)(F)F)c3)ccc2N2CC[C@H]1C2 [Example 616] | B (B (EC1.5 1-25 μM)) |
| O=C(Nc1ccc(F)cn1)N1c2nc(-c3cncc(F)c3)ccc2N2CCC[C@H]1C2 [Example 431] | A (A (EC1.5<1 μM)) |
| CN1CCCN(c2ccc3c(n2)N(C(=O)Nc2ccncn2)[C@H]2CCCN3C2)CC1 [Example 484] | C (C (EC1.5>25 μM)) |
| Cc1nc(NC(=O)N2c3nc(-c4ccccc4C#N)ccc3N3CCC[C@H]2C3)sc1C [Example 476] | B (B (EC1.5 1-25 μM)) |
| O=C(Nc1cncc(F)c1)N1c2nc(-c3ccnc(N4CC[C@H](F)C4)c3)ccc2N2CC[C@H]1C2 [Example 475] | A (A (EC1.5<1 μM)) |
| Cc1ccc(-c2ccc3c(n2)N(C(=O)Nc2ccncn2)[C@H]2CCCN3C2)cn1 [Example 479] | B (B (EC1.5 1-25 μM)) |
| O=C(Nc1cccnc1)N1c2nc(-c3cccc(Cl)c3)ccc2N2CCC1CC2 [Example 496] | A (A (EC1.5<1 μM)) |
| O=C(Nc1cccnc1)N1c2nc(-c3cnn(-c4ccccc4)c3)ccc2N2CC[C@H]1C2 [Example 549] | B (B (EC1.5 1-25 μM)) |
| O=C(Nc1cncc(F)c1)N1c2nc(-c3cccnc3)ccc2N2CCC[C@H]1C2 [Example 453] | B (B (EC1.5 1-25 μM)) |
| Cc1cc(-c2ccc3c(n2)N(C(=O)Nc2cccc(-c4cnco4)c2)[C@H]2CCN3C2)ccn1 [Example 480] | A (A (EC1.5<1 μM)) |
| O=C(Nc1ccc2c(c1)CCC2)N1c2nc(-c3cccc(C(F)(F)F)c3)ccc2N2CC[C@H]1C2 [Example 624] | B (B (EC1.5 1-25 μM)) |
| Cc1nc(NC(=O)N2c3nc(-c4cncc(Cl)c4)ccc3N3CCC2CC3)sc1C [Example 554] | B (B (EC1.5 1-25 μM)) |
| O=C(Nc1cccnc1)N1c2nc(-c3cncc(C(F)(F)F)c3)ccc2N2CC[C@H]1C2 [Example 556] | A (A (EC1.5<1 μM)) |

Same assay, conditions: Trp mass spectrometry assay; concentration of test compound giving 150% activation of SIRT1

| SMILES | Tryp AVG EC1.5 (μM) |
| --- | --- |
| O=C(Nc1ccccn1)N1c2nc(-c3cncc(F)c3)ccc2N2CC[C@H]1C2 [Example 374] | B (B (EC1.5 1-25 μM)) |
| O=C(Nc1cncc(F)c1)N1c2nc(-c3ccnc(N4CCC(C(F)(F)F)C4)c3)ccc2N2CC[C@H]1C2 (stereo partly shown) [Example 410] | A (A (EC1.5<1 μM)) |
| CS(=O)(=O)c1cncc(-c2ccc3c(n2)N(C(=O)Nc2cccnc2)[C@H]2CCCN3C2)c1 [Example 376] | A (A (EC1.5<1 μM)) |
| O=C(Nc1cnccn1)N1c2nc(-c3cc(F)c(F)c(F)c3)ccc2N2CC[C@H]1C2 [Example 416] | C (C (EC1.5>25 μM)) |
| N#Cc1cccc(-c2ccc3c(n2)N(C(=O)Nc2cnccn2)[C@H]2CCCN3C2)c1 [Example 351] | A (A (EC1.5<1 μM)) |
| O=C(Nc1cnccn1)N1c2nc(-c3cncc(F)c3)ccc2N2CC[C@H]1C2 [Example 400] | B (B (EC1.5 1-25 μM)) |
| CN(C)Cc1cccc(-c2ccc3c(n2)N(C(=O)Nc2ccccn2)[C@H]2CCN3C2)c1 [Example 343] | B (B (EC1.5 1-25 μM)) |
| COc1ccc(-c2ccc3c(n2)N(C(=O)Nc2cnccn2)[C@H]2CCN3C2)cn1 [Example 399] | B (B (EC1.5 1-25 μM)) |
| O=C(Nc1cnccn1)N1c2nc(-c3cc(Cl)cc(Cl)c3)ccc2N2CC[C@H]1C2 [Example 364] | B (B (EC1.5 1-25 μM)) |
| O=C(Nc1ccccn1)N1c2nc(-c3cccc(CC(O)CO)c3)ccc2N2CC[C@H]1C2 (stereo partly shown) [Example 354] | A (A (EC1.5<1 μM)) |
| O=C(Nc1cncc(F)c1)N1c2nc(-c3cncc(C(F)(F)F)c3)ccc2N2CCC[C@H]1C2 [Example 411] | A (A (EC1.5<1 μM)) |
| Cn1nccc1-c1ccc2c(n1)N(C(=O)Nc1cnccn1)[C@H]1CCN2C1 [Example 414] | B (B (EC1.5 1-25 μM)) |

Same assay, conditions: Trp peptide assay; EC1.5 = concentration that results in 150% activation of SIRT1

| SMILES | TRP Activity (EC1.5) |
| --- | --- |
| N#Cc1ccc2c(n1)N(C(=O)Nc1cnccn1)[C@H]1CCN2C1 [(9S)-5-cyano-N-(pyrazin-2-yl)-1,6,8-triazatricyclo[7.2.1.0 {2,7}]dodeca-2(7),3,5-triene-8-carboxamide] | C (C (EC1.5>25 μM)) |
| O=C(Nc1ccccn1)N1c2nc(N3CCC(C(F)(F)F)C3)ccc2N2CC[C@H]1C2 (stereo partly drawn) [(9S)-N-(pyridin-2-yl)-5-[(3S)-3-(trifluoromethyl)pyrrolidin-1-yl]-1,6,8-triazatricyclo[7.2.1.0^{2,7}]dodeca-2(7),3,5-triene-8-carboxamide] | B (B (EC1.5 1-25 μM)) |
| Cc1cc(-c2ccc3c(n2)N(C(=O)N2CC[C@@H](C)C2)[C@H]2CCN3C2)ccn1 [(9S)-5-(2-methylpyridin-4-yl)-8-{[(3R)-3-methylpyrrolidin-1-yl]carbonyl}-1,6,8-triazatricyclo[7.2.1.0 {2,7}]dodeca-2,4,6-triene] | C (C (EC1.5>25 μM)) |
| C[C@@H]1CN(c2ccc3c(n2)N(C(=O)Nc2cnccn2)[C@H]2CCN3C2)C[C@H](C)O1 [(9S)-5-[(2R,6S)-2,6-dimethylmorpholin-4-yl]-N-(pyrazin-2-yl)-1,6,8-triazatricyclo[7.2.1.0 {2,7}]dodeca-2(7),3,5-triene-8-carboxamide] | B (B (EC1.5 1-25 μM)) |
| Cc1cc(-c2ccc3c(n2)N(C(=O)Nc2cccnn2)[C@H]2CCCN3C2)ccn1 [(9S)-5-(2-methylpyridin-4-yl)-N-(pyridazin-3-yl)-1,6,8-triazatricyclo[7.3.1.0 {2,7}]trideca-2(7),3,5-triene-8-carboxamide] | A (A (EC1.5<1 μM)) |
| COc1cncc(NC(=O)N2c3nc(-c4ccnc(C)c4)ccc3N3CCC[C@H]2C3)n1 [(9S)-N-(6-methoxypyrazin-2-yl)-5-(2-methylpyridin-4-yl)-1,6,8-triazatricyclo[7.3.1.0 {2,7}]trideca-2(7),3,5-triene-8-carboxamide] | A (A (EC1.5<1 μM)) |
| Cc1cc(NC(=O)N2c3nc(-c4ccnc(C)c4)ccc3N3CC[C@H]2C3)ccn1 [(9S)-N,5-bis(2-methylpyridin-4-yl)-1,6,8-triazatricyclo[7.2.1.0 {2,7}]dodeca-2(7),3,5-triene-8-carboxamide] | B (B (EC1.5 1-25 μM)) |

Same assay, conditions: Trp peptide assay; maximum activity relative to control (100%); read-out: TRP MAX RESP (percent maximum fold activation)

| SMILES | Emax |
| --- | --- |
| N#Cc1ccc2c(n1)N(C(=O)Nc1cnccn1)[C@H]1CCN2C1 [(9S)-5-cyano-N-(pyrazin-2-yl)-1,6,8-triazatricyclo[7.2.1.0 {2,7}]dodeca-2(7),3,5-triene-8-carboxamide] | < 150% |
| O=C(Nc1ccccn1)N1c2nc(N3CCC(C(F)(F)F)C3)ccc2N2CC[C@H]1C2 (stereo partly drawn) [(9S)-N-(pyridin-2-yl)-5-[(3S)-3-(trifluoromethyl)pyrrolidin-1-yl]-1,6,8-triazatricyclo[7.2.1.0^{2,7}]dodeca-2(7),3,5-triene-8-carboxamide] | > 150% |
| Cc1cc(-c2ccc3c(n2)N(C(=O)N2CC[C@@H](C)C2)[C@H]2CCN3C2)ccn1 [(9S)-5-(2-methylpyridin-4-yl)-8-{[(3R)-3-methylpyrrolidin-1-yl]carbonyl}-1,6,8-triazatricyclo[7.2.1.0 {2,7}]dodeca-2,4,6-triene] | < 150% |
| C[C@@H]1CN(c2ccc3c(n2)N(C(=O)Nc2cnccn2)[C@H]2CCN3C2)C[C@H](C)O1 [(9S)-5-[(2R,6S)-2,6-dimethylmorpholin-4-yl]-N-(pyrazin-2-yl)-1,6,8-triazatricyclo[7.2.1.0 {2,7}]dodeca-2(7),3,5-triene-8-carboxamide] | > 150% |
| Cc1cc(-c2ccc3c(n2)N(C(=O)Nc2cccnn2)[C@H]2CCCN3C2)ccn1 [(9S)-5-(2-methylpyridin-4-yl)-N-(pyridazin-3-yl)-1,6,8-triazatricyclo[7.3.1.0 {2,7}]trideca-2(7),3,5-triene-8-carboxamide] | > 150% |
| COc1cncc(NC(=O)N2c3nc(-c4ccnc(C)c4)ccc3N3CCC[C@H]2C3)n1 [(9S)-N-(6-methoxypyrazin-2-yl)-5-(2-methylpyridin-4-yl)-1,6,8-triazatricyclo[7.3.1.0 {2,7}]trideca-2(7),3,5-triene-8-carboxamide] | > 150% |
| Cc1cc(NC(=O)N2c3nc(-c4ccnc(C)c4)ccc3N3CC[C@H]2C3)ccn1 [(9S)-N,5-bis(2-methylpyridin-4-yl)-1,6,8-triazatricyclo[7.2.1.0 {2,7}]dodeca-2(7),3,5-triene-8-carboxamide] | > 150% |

Same assay, conditions: Trp peptide substrate; concentration giving 150% activation of SIRT1

| SMILES | Tryp AVG EC1.5 (μM) |
| --- | --- |
| Cc1cc(C(F)(F)F)nc(NC(=O)N2c3nc(-c4cccc(C(F)(F)F)c4)ccc3N3CC[C@H]2C3)n1 [Example 94] | B (B (EC1.5 1-25 μM)) |

Same assay, conditions: concentration giving 150% activation of SIRT1; Trp peptide substrate

| SMILES | Tryp AVG EC1.5 (μM) |
| --- | --- |
| O=C(Nc1cccc(-c2cnco2)c1)N1c2nc(N3CCC[C@H](C(F)(F)F)C3)ccc2N2CC[C@H]1C2 [Example 718] | A (A (EC1.5<1 μM)) |
| O=C(Nc1ccncc1)N1c2nc(-c3cccc(C(F)(F)F)c3)ccc2N2CCC[C@H]1C2 [Example 821] | A (A (EC1.5<1 μM)) |
| [N-]=[N+]=Nc1cc(N=[N+]=[N-])cc(-c2ccc3c(n2)N(C(=O)Nc2ccc(F)cn2)[C@H]2CCN3C2)c1 [Example 806] | A (A (EC1.5<1 μM)) |
| Cc1cc(-c2ccc3c(n2)N(C(=O)Nc2cncc(-c4cnco4)c2)[C@H]2CCN3C2)ccn1 [Example 748] | A (A (EC1.5<1 μM)) |
| CC(=O)c1ccc(NC(=O)N2c3nc(-c4cccc(C(F)(F)F)c4)ccc3N3CC[C@H]2C3)cc1 [Example 668] | A (A (EC1.5<1 μM)) |
| O=C(Nc1nnc(C(F)(F)F)s1)N1c2nc(-c3cccc(C(F)(F)F)c3)ccc2N2CC[C@H]1C2 [Example 650] | C (C (EC1.5>25 μM)) |
| CC(C)(C)OC(=O)NCc1cccc(-c2ccc3c(n2)N(C(=O)Nc2ccncc2)[C@H]2CCCN3C2)c1 [Example 795] | B (B (EC1.5 1-25 μM)) |

Same assay, conditions: percent maximum fold activation of SIRT1; Trp peptide substrate; read-out: Tryp % Fold Act

| SMILES | Emax |
| --- | --- |
| [N-]=[N+]=Nc1cc(N=[N+]=[N-])cc(-c2ccc3c(n2)N(C(=O)Nc2ccc(F)cn2)[C@H]2CCN3C2)c1 [Example 806] | > 150% |
